Reference: patent US6391296B1 (priority 1997, dated 2002)

How the values were obtained:
[1] = system: recombinant Bombyx mori nuclear polyhedrosis viruses rBNVγ; assay type: cell-based, Bombyx mori nuclear polyhedrosis virus; conditions: pH 3.5
Escherichia coli JM101 = assay type: cell-based; conditions: Addition of 20 mg/l of thiaisoleucine, 30° C., 48 hours; no addition = 100
Escherichia coli TI41 = assay type: cell-based; conditions: Addition of 20 mg/l of thiaisoleucine, 30° C., 48 hours; no addition = 100
Escherichia coli TI139 = assay type: cell-based; conditions: Addition of 20 mg/l of thiaisoleucine, 30° C., 48 hours; no addition = 100

Molecule	Amount of infectious viruses [1]	Relative degree of growth (Escherichia coli JM101) [%]	Relative degree of growth (Escherichia coli TI41) [%]	Relative degree of growth (Escherichia coli TI139) [%]
CC(C)(C)CC(C)(C)c1ccc(OCCOCC[N+](C)(C)Cc2ccccc2)cc1 [benzethonium chloride]	Not detected	–	–	–
thiaisoleucine	–	17.1	95.2	106.1
